According to ChEMBL document CHEMBL1147837, “Methyl 2-(2-(4-formylphenoxy)acetamido)-2-substituted acetate derivatives: a new class of acetylcholinesterase inhibitors” (Bioorg Med Chem Lett, 2007):

Columns and labels:
Acetylcholinesterase = Acetylcholinesterase (Torpedo californica, UniProt P04058); experiment: Inhibition of AChE
Butyrylcholinesterase = Butyrylcholinesterase (Equus caballus, UniProt Q9N1N9); experiment: Inhibition of BuChE in horse serum
[1] = Selectivity for Torpedo californica AChE over horse BuChE

Acetylcholinesterase, sequence (P04058 whole entry): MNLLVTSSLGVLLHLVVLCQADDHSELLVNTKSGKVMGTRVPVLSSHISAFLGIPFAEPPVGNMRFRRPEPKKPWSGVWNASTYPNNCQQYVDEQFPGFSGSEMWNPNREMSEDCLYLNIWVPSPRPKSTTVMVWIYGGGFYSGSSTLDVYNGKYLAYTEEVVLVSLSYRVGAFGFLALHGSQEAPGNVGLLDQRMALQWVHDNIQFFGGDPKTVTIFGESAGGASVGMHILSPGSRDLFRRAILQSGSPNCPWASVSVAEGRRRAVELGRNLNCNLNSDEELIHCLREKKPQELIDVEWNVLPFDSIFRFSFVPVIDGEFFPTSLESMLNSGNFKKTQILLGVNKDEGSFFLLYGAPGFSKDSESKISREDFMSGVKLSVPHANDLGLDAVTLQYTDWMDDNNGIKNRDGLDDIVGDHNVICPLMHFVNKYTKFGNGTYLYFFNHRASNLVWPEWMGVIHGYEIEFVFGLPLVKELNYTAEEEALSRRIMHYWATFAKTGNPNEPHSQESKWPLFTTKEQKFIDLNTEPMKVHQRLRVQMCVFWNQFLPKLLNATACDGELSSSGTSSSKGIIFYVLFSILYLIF
Butyrylcholinesterase, sequence (Q9N1N9 whole entry): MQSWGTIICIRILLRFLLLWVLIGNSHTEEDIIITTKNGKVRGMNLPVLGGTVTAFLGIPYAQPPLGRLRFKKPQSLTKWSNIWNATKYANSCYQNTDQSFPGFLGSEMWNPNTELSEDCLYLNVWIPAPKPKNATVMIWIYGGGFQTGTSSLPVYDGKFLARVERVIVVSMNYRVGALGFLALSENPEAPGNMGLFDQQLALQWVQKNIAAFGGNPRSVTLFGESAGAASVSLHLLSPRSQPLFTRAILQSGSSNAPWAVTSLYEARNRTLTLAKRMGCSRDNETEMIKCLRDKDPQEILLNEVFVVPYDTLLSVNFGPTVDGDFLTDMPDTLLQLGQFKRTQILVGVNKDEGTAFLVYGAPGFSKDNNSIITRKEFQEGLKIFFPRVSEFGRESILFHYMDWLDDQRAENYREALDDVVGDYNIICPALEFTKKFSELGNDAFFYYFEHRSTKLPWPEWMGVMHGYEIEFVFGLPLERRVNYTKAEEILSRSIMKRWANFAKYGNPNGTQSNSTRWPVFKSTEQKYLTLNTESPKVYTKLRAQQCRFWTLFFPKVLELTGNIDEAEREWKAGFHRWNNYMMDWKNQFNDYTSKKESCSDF

| Compound | IC50 (Acetylcholinesterase) [µM] | IC50 (Butyrylcholinesterase) [µM] | Ratio IC50 [1] |
| --- | --- | --- | --- |
| COC(=O)CNC(=O)COc1ccc(C=O)cc1 | 98.9 | – | – |
| O=Cc1ccc(O)cc1 [4-HYDROXYBENZALDEHYDE] | > 1000 | – | – |
| COC(=O)CCC(NC(=O)COc1ccc(C=O)cc1)C(=O)OC (stereo not drawn) | > 200 | – | – |
| COC(=O)C(C)NC(=O)COc1ccc(C=O)cc1 (stereo not drawn) | 0.19 | – | – |
| COC(=O)C(Cc1c[nH]c2ccccc12)NC(=O)COc1ccc(C=O)cc1 (stereo not drawn) | 0.28 | 33.9 | 121 |
| COC(=O)C(Cc1ccccc1)NC(=O)COc1ccc(C=O)cc1 (stereo not drawn) | 4.96 | – | – |
